ChEMBL document CHEMBL2203228, “Structural modifications of a 3-methoxy-2-aminopyridine compound to reduce potential for mutagenicity and time-dependent drug-drug interaction” (Bioorg Med Chem Lett, 2012)
pIC50: −log10 of the molar value. Converted amounts (≈) assume the structure as drawn.

Legend:
Salmonella typhimurium = experiment: Mutagenic activity in Salmonella typhimurium assessed as fold increase in colony forming units by Bioluminescent Ames assay relative to control; assay type: toxicity, organism-based; conditions: salmonella enterica subsp. enterica serovar typhimurium
Cytochrome P450 3A4 [1] = target: T1, Cytochrome P450 3A4 (Homo sapiens, UniProt P08684); experiment: Time dependent inhibition of human liver microsome CYP3A4 assessed as change in midazolam metabolism at 60 uM by two-step reaction; assay type: ADME; parameters: scale not given: the % may be the effect or the level left; conditions: microsomes
T1 sequence (P08684 whole entry): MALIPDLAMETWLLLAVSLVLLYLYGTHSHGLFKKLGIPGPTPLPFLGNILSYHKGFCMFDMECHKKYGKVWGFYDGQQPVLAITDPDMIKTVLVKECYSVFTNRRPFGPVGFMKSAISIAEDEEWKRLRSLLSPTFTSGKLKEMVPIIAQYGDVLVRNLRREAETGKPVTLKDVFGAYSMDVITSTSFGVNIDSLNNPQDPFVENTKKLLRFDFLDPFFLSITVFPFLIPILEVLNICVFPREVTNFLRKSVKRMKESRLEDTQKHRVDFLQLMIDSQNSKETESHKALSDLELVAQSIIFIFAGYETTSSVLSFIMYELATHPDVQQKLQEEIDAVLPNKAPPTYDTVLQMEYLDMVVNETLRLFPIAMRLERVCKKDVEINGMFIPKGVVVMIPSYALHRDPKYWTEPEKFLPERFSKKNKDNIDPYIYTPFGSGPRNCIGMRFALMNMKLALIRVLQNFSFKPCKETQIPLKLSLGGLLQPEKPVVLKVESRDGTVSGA

[2] = Solubility of the compound; assay type: physicochemical
[3] = target: Serine/threonine-protein kinase B-raf (Homo sapiens, UniProt P15056, V600E); experiment: Inhibition of B-Raf V600E mutant -mediated MEK phosphorylation
Chain of Serine/threonine-protein kinase B-raf (P15056 2-766 V600E limits assumed): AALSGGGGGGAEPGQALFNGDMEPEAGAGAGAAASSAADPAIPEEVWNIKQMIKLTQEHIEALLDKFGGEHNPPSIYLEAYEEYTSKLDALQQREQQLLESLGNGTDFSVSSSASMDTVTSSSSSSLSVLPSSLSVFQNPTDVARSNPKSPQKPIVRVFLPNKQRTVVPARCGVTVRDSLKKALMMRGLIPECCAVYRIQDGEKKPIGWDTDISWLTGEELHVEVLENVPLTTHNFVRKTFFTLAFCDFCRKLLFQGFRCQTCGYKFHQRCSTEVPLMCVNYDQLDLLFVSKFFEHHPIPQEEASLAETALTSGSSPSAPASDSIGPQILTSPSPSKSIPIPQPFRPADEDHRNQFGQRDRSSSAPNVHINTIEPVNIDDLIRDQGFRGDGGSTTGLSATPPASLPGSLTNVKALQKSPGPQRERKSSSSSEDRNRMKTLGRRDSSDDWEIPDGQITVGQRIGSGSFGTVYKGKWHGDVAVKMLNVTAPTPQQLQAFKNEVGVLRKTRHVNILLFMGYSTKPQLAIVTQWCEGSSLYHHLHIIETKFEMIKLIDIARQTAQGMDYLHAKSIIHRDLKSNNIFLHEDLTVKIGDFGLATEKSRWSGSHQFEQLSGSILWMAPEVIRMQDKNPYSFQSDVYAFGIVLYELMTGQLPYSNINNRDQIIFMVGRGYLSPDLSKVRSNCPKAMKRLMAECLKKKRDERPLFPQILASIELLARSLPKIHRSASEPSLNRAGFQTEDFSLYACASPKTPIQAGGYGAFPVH

Cytochrome P450 3A4 [4] = target: T1, Cytochrome P450 3A4; experiment: Time dependent inhibition of CYP3A4; assay type: ADME; conditions: TDE = time-dependent effect
[5] = Clearance in rat; assay type: ADME, organism-based; conditions: in vivo
[6] = Oral bioavailability in rat; assay type: ADME, organism-based; conditions: in vivo
[7] = Half life in rat; assay type: ADME, organism-based; conditions: in vivo

| SMILES | Activity (Cytochrome P450 3A4 [1]) [%] | fold change (FC) (Salmonella typhimurium) | further results |
| --- | --- | --- | --- |
| COc1cncc(-c2nn(C(C)C)cc2-c2ccnc(NC[C@H](C)O)n2)c1 | < 30 | < 2 | – |
| CC(C)n1cc(-c2ccnc(NC[C@H](C)O)n2)c(-c2cnc3[nH]ncc3c2)n1 | < 30 | < 2 | – |
| CC(C)n1cc(-c2ccnc(NC[C@H](C)O)n2)c(-c2cnc3[nH]cc(Cl)c3c2)n1 | 11 | < 2 | – |
| COc1cc(-c2nn(C(C)C)cc2-c2ccnc(NC[C@H](C)O)n2)c(C)nc1N | – | – | Activity (Salmonella typhimurium): Toxic |
| COc1nc(-c2nn(C(C)C)cc2-c2ccnc(NC[C@H](C)O)n2)cnc1N | 30 | 4 | – |

Now from value to compound, other results behind:

| Activity (Cytochrome P450 3A4 [1]) [%] | SMILES | fold change (FC) (Salmonella typhimurium) | further results |
| --- | --- | --- | --- |
| < 30 | CC(=O)c1cc(-c2nn(C(C)C)cc2-c2ccnc(NC[C@H](C)O)n2)cnc1N | < 2 | – |
| 11 | CC(C)n1cc(-c2ccnc(NC[C@H](C)O)n2)c(-c2cnc3[nH]ccc3c2)n1 | < 2 | – |
| 11 | Cc1c[nH]c2ncc(-c3nn(C(C)C)cc3-c3ccnc(NC[C@H](C)O)n3)cc12 | < 2 | – |
| 13 | COc1cc(-c2nn(C(C)C)cc2-c2ccnc(NC[C@H](C)O)n2)cnc1N | 4 | solubility [2]: 503 µM (≈ 193 µg/mL); pIC50 [3]: 8.19; Activity (Salmonella typhimurium): Non-toxic; inhibition (INH) (Cytochrome P450 3A4 [4]): tde; clearance [5]: 56.3 mL/min/kg; bioavailability [6]: 43%; half-life [7]: 4.43 h |
